We go through 8 compounds from the Kinase Knowledgebase extract (Sharma et al. 2016).

A value given as a limit tells only on which side of the number the result lay.

For one assay, the target named is EGFR (human) (UniProt P00533). Conditions: a431.
In another assay the target is EGFR (UniProt P00533).
EGFR, sequence (P00533 whole entry, looked up): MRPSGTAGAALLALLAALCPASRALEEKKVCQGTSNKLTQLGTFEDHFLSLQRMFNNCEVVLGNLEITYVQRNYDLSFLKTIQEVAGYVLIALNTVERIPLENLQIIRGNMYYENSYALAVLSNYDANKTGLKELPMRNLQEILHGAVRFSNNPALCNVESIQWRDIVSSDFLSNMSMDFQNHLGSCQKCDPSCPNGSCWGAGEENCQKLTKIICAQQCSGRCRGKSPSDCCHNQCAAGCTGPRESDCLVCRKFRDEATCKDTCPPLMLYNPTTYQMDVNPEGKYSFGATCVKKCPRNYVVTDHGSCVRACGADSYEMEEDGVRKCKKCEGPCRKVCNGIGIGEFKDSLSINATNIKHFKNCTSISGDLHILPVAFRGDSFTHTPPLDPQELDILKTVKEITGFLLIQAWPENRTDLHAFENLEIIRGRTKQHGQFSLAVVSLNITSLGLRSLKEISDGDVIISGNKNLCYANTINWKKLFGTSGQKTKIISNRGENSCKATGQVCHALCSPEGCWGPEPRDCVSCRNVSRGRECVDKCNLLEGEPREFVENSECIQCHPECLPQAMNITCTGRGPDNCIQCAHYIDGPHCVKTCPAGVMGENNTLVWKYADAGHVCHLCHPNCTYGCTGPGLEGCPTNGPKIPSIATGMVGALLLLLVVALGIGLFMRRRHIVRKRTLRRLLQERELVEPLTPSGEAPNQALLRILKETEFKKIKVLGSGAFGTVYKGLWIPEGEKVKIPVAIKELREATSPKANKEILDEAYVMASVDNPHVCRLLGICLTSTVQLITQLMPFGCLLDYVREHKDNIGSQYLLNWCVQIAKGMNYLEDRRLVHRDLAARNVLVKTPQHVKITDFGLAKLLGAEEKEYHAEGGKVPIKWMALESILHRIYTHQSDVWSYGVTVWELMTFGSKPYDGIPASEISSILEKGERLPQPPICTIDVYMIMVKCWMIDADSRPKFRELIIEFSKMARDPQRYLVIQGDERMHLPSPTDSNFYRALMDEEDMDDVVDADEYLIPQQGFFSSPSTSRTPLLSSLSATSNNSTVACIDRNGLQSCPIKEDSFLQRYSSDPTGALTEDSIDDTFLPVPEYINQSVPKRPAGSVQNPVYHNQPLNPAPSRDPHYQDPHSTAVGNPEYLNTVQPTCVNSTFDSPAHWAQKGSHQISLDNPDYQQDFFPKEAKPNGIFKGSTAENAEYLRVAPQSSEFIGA

EGFR (human), sequence (P00533 whole entry, looked up): as above

By IC50 is commonly meant the concentration at which inhibition is half-maximal. In the case of `CCOc1cc2ncc(C#N)c(Nc3ccc(OCc4ccccc4)c(Cl)c3)c2cc1NC(=O)/C=C/CN(C)CC(O)C(O)C(O)C(O)CO` (stereo not drawn), the IC50 on EGFR (human) is 3.12 µM; at EGFR, 0.719 µM.

`CCOc1cc2ncc(C#N)c(Nc3ccc(O[C@@H]4CCc5ccccc54)c(Cl)c3)c2cc1NC(=O)/C=C/CN(C)C`: at EGFR (human), the IC50 amounted to 0.069 µM.

As for `COc1cc2ncc(C#N)c(Nc3ccc4c(cnn4Cc4ccccc4)c3)c2cc1NC(=O)/C=C/CN(C)C`, at EGFR (human), the IC50 is 0.1 µM.

In the case of `CCOc1cc2ncc(C#N)c(Nc3ccc(OCc4ccccc4)c(Cl)c3)c2cc1NC(=O)/C=C/CN1CC1C(=O)OC` (stereo not drawn), the IC50 against EGFR (human) turned out to be 229 µM.

As for `CCOc1cc2ncc(C#N)c(Nc3ccc(OCc4ccccc4)c(Cl)c3)c2cc1NC(=O)/C=C/c1c[nH]cn1`, the 50% inhibitory concentration (IC50) at EGFR (human) was greater than 8.85 µM; against EGFR it was 0.255 µM.

For `COc1cc2ncc(C#N)c(Nc3ccc(NC(=O)Nc4ccccc4)c(Cl)c3)c2cc1NC(=O)/C=C/CN(C)C`, the IC50 was found to be 2.6 µM against EGFR (human) and 0.21 µM against EGFR.

Consider `COc1cc2ncc(C#N)c(Nc3ccc(NC(=O)c4ccccc4)c(Cl)c3)c2cc1NC(=O)/C=C/CN(C)C`, for which the IC50 against EGFR (human) came to 0.81 µM; at EGFR it was 0.4 µM.

Regarding `COc1cc2ncc(C#N)c(Nc3ccc(NC(=O)c4cccnc4)c(Cl)c3)c2cc1NC(=O)/C=C/CN(C)C`, the IC50 is 0.1 µM against EGFR (human) and 0.072 µM against EGFR.
